Measurements: ChEMBL document CHEMBL1143176, “Design, synthesis, and biological activity of piperidine diamine derivatives as factor Xa inhibitor” (Bioorg Med Chem Lett, 2008)
≈ marks a conversion by molar mass, not a printed value.

Columns and labels:
Coagulation factor X = Coagulation factor X (Homo sapiens, UniProt P00742); experiment: Inhibition of human factor 10a
Plasma = experiment: Anticoagulant activity in human plasma assessed as concentration required to double prothrombin time; format: functional
[1] = Solubility in japanese pharmacopoeia second fluid at pH 6.8; format: physicochemical
[2] = AUC (0 to 24 hrs) in monkey at 1.0 mg/kg, po; format: ADME, organism-based, Macaca mulatta; design: time < 24 hr, dose 1 mg/kg, route oral; settings: rhesus monkey, plasma
[3] = Cmax in monkey at 1.0 mg/kg, po; format: ADME, organism-based, Macaca mulatta; design: dose 1 mg/kg, route oral; settings: rhesus monkey, in vivo
[4] = Tmax in monkey at 1.0 mg/kg, po; format: ADME, organism-based, Macaca mulatta; design: dose 1 mg/kg, route oral; settings: rhesus monkey, in vivo
[5] = Metabolic stability assessed as intrinsic clearance in human liver microsome; format: ADME; settings: liver microsomes
[6] = Metabolic stability assessed as half life in human liver microsome; format: ADME; settings: liver microsomes
Rattus norvegicus [7] = experiment: Ex vivo inhibition of factor 10a in Wistar rat plasma at 10 mg/kg, po after 0.5 hrs; format: functional
Rattus norvegicus [8] = experiment: Ex vivo inhibition of factor 10a in Wistar rat plasma at 10 mg/kg, po after 2 hrs; format: functional
Rattus norvegicus [9] = experiment: Ex vivo inhibition of factor 10a in Wistar rat plasma at 10 mg/kg, po after 4 hrs; format: functional
Rattus norvegicus [10] = experiment: Ex vivo inhibition of factor 10a in Wistar rat plasma at 10 mg/kg, po after 1 hr; format: functional

Sequence of Coagulation factor X (P00742 41-179 limits assumed): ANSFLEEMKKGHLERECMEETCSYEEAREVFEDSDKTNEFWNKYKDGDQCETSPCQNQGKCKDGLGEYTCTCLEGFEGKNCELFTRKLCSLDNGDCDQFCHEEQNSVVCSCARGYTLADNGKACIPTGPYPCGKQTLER
Sequence of Coagulation factor X (P00742 235-488 limits assumed): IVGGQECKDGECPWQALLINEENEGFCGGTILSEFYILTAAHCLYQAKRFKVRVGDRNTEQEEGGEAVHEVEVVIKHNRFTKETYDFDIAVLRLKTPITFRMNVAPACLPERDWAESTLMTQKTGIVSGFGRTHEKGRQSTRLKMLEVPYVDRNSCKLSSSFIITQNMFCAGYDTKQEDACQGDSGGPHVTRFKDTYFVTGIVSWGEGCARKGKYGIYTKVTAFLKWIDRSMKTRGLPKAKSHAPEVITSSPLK

Compound	IC50 (Coagulation factor X) [nM]	Activity (Plasma) [µM]	solubility [1] [µg/mL]	CLint scaled [5] [mL/min/kg]	half-life [6] [min]	further results
CN1CCc2nc(C(=O)NC3CN(S(C)(=O)=O)CCC3NC(=O)c3cc4cc(Cl)ccc4[nH]3)sc2C1 (racemic)	28	2.5	103 (≈ 187 µM)			
CN1CCc2nc(C(=O)N[C@@H]3CN(CC(=O)O)CC[C@@H]3NC(=O)c3cc4cc(Cl)ccc4[nH]3)sc2C1	26	1.8	723 (≈ 1360 µM)			
CN1CCc2nc(C(=O)NC3CCN(S(C)(=O)=O)CC3NC(=O)c3cc4cc(Cl)ccc4[nH]3)sc2C1 (racemic)	45	8	70 (≈ 127 µM)			
COCC(=O)N1CC[C@H](NC(=O)c2cc3cc(Cl)ccc3[nH]2)[C@H](NC(=O)c2nc3c(s2)CN(C)CC3)C1.Cl						AUC(0-t) at 24 h [2]: 83.6 ng·h/mL; Cmax [3]: 36.4 ng/mL; Tmax [4]: 72 min
CN1CCc2nc(C(=O)NC3CCN(C(=O)OC(C)(C)C)CC3NC(=O)c3cc4cc(Cl)ccc4[nH]3)sc2C1 (racemic)	130	6.2	< 1			
CCC(=O)N1CCC(NC(=O)c2cc3cc(Cl)ccc3[nH]2)C(NC(=O)c2nc3c(s2)CN(C)CC3)C1 (racemic)				103	6.08	
CCNC(=O)N1CCC(NC(=O)c2cc3cc(Cl)ccc3[nH]2)C(NC(=O)c2nc3c(s2)CN(C)CC3)C1 (racemic)				86.4	7.22	
CCOC(=O)N1CCC(NC(=O)c2nc3c(s2)CN(C)CC3)C(NC(=O)c2cc3cc(Cl)ccc3[nH]2)C1 (racemic)	110	11	37 (≈ 67.9 µM)			
COC(=O)CN1CC[C@H](NC(=O)c2cc3cc(Cl)ccc3[nH]2)[C@H](NC(=O)c2nc3c(s2)CN(C)CC3)C1	56	2.1	28 (≈ 51.4 µM)			
COCC(=O)N1CCC(NC(=O)c2cc3cc(Cl)ccc3[nH]2)C(NC(=O)c2nc3c(s2)CN(C)CC3)C1 (racemic)				45.9	13.6	
CN1CCc2nc(C(=O)NC3CCNCC3NC(=O)c3cc4cc(Cl)ccc4[nH]3)sc2C1 (racemic)	530	>20	830 (≈ 1750 µM)			
CCC(=O)N1CC[C@H](NC(=O)c2cc3cc(Cl)ccc3[nH]2)[C@H](NC(=O)c2nc3c(s2)CN(C)CC3)C1	9	0.78	160 (≈ 302 µM)			
CN1CCc2nc(C(=O)NC3CN(C(=O)NC(C)(C)C)CCC3NC(=O)c3cc4cc(Cl)ccc4[nH]3)sc2C1 (racemic)				99.9	6.24	
COCC(=O)N1CC[C@H](NC(=O)c2cc3cc(Cl)ccc3[nH]2)[C@H](NC(=O)c2nc3c(s2)CN(C)CC3)C1	5.8	0.78	510 (≈ 936 µM)			inhibition in vivo at 10 mg/kg (Rattus norvegicus [7]): 68%; inhibition in vivo at 10 mg/kg (Rattus norvegicus [8]): 38%; inhibition in vivo at 10 mg/kg (Rattus norvegicus [9]): 16%; inhibition in vivo at 10 mg/kg (Rattus norvegicus [10]): 50%
CC(=O)N1CCC(NC(=O)c2cc3cc(Cl)ccc3[nH]2)C(NC(=O)c2nc3c(s2)CN(C)CC3)C1 (racemic)			421 (≈ 817 µM)	95.4	6.54	
CN1CCc2nc(C(=O)N[C@@H]3CN(C(=O)CO)CC[C@@H]3NC(=O)c3cc4cc(Cl)ccc4[nH]3)sc2C1	9.3	0.9	410 (≈ 772 µM)			inhibition in vivo at 10 mg/kg (Rattus norvegicus [7]): 0.76%; inhibition in vivo at 10 mg/kg (Rattus norvegicus [8]): -2.5%; inhibition in vivo at 10 mg/kg (Rattus norvegicus [9]): -7.3%; inhibition in vivo at 10 mg/kg (Rattus norvegicus [10]): -2%

Compound	IC50 (Coagulation factor X) [nM]	Activity (Plasma) [µM]	solubility [1] [µg/mL]	CLint scaled [5] [mL/min/kg]	half-life [6] [min]	further results
CN1CCc2nc(C(=O)NC3CN(C(=O)CO)CCC3NC(=O)c3cc4cc(Cl)ccc4[nH]3)sc2C1 (racemic)				41.4	15.1	
COCCN1CC[C@H](NC(=O)c2cc3cc(Cl)ccc3[nH]2)[C@H](NC(=O)c2nc3c(s2)CN(C)CC3)C1	47	3.8	130 (≈ 245 µM)			
CCNC(=O)N1CC[C@H](NC(=O)c2cc3cc(Cl)ccc3[nH]2)[C@H](NC(=O)c2nc3c(s2)CN(C)CC3)C1	7.8	0.8	220 (≈ 404 µM)			inhibition in vivo at 10 mg/kg (Rattus norvegicus [7]): 16.7%; inhibition in vivo at 10 mg/kg (Rattus norvegicus [8]): 5.3%; inhibition in vivo at 10 mg/kg (Rattus norvegicus [9]): 4.3%; inhibition in vivo at 10 mg/kg (Rattus norvegicus [10]): 11.4%
CN1CCc2nc(C(=O)NC3CCCCC3NC(=O)c3cc4cc(Cl)ccc4[nH]3)sc2C1 (racemic)		4.4	17 (≈ 36 µM)	81	7.7	
CN1CCc2nc(C(=O)NC3CNCCC3NC(=O)c3cc4cc(Cl)ccc4[nH]3)sc2C1 (racemic)	62	1.3	996 (≈ 2110 µM)			
CC(=O)N1CCC(NC(=O)c2nc3c(s2)CN(C)CC3)C(NC(=O)c2cc3cc(Cl)ccc3[nH]2)C1 (racemic)	48	5.8	290 (≈ 563 µM)			
CN1CCc2nc(C(=O)NC3CN(C(=O)OC(C)(C)C)CCC3NC(=O)c3cc4cc(Cl)ccc4[nH]3)sc2C1 (racemic)	10	3.5	3 (≈ 5.23 µM)	140	4.44	
CN1CCc2nc(C(=O)N[C@@H]3CCCC[C@@H]3NC(=O)c3cc4cc(Cl)ccc4[nH]3)sc2C1.Cl						AUC(0-t) at 24 h [2]: 56.6 ng·h/mL; Cmax [3]: 23.3 ng/mL; Tmax [4]: 120 min
CN1CCc2nc(C(=O)N[C@@H]3CN(C(=O)NC(C)(C)C)CC[C@@H]3NC(=O)c3cc4cc(Cl)ccc4[nH]3)sc2C1	4.8	0.78	39 (≈ 68.2 µM)			
CN1CCc2nc(C(=O)N[C@@H]3CN(C(=O)N(C)C)CC[C@@H]3NC(=O)c3cc4cc(Cl)ccc4[nH]3)sc2C1			56 (≈ 103 µM)			inhibition in vivo at 10 mg/kg (Rattus norvegicus [7]): 80.2%; inhibition in vivo at 10 mg/kg (Rattus norvegicus [8]): 73.7%; inhibition in vivo at 10 mg/kg (Rattus norvegicus [9]): 68.1%; inhibition in vivo at 10 mg/kg (Rattus norvegicus [10]): 78.6%
CN1CCc2nc(C(=O)NC3CN(C(=O)N(C)C)CCC3NC(=O)c3cc4cc(Cl)ccc4[nH]3)sc2C1 (racemic)				92.7	6.73	
CC(C)C(=O)N1CCC(NC(=O)c2cc3cc(Cl)ccc3[nH]2)C(NC(=O)c2nc3c(s2)CN(C)CC3)C1 (racemic)				98.1	6.36	
CCOC(=O)N1CCC(NC(=O)c2cc3cc(Cl)ccc3[nH]2)C(NC(=O)c2nc3c(s2)CN(C)CC3)C1 (racemic)	4.5	1.4	43 (≈ 78.9 µM)	138	4.53	
CN1CCc2nc(C(=O)N[C@@H]3CCCC[C@@H]3NC(=O)c3cc4cc(Cl)ccc4[nH]3)sc2C1			16 (≈ 33.9 µM)	97.2	6.42	
CC(C)C(=O)N1CC[C@H](NC(=O)c2cc3cc(Cl)ccc3[nH]2)[C@H](NC(=O)c2nc3c(s2)CN(C)CC3)C1	5.6	1.1	66 (≈ 122 µM)			
